Key:
[1] = tested on: C57B1/6 mice after Whole Body Irradiation; assay: Whole Body Irradiation 8.6 Gy, treatment from three hours after WBI; assay type: in vivo
Method: “WBI” stands for Whole Body Irradiation. Radiation damage protection in vivo was assessed after WBI (6.5 to 9.8 Gy, Philips MG 30 at 81 cGy/min) on anesthetized C57B1/6 mice, and survival differences were measured by Kaplan-Meirer analysis. All groups of mice got the first injection with peptide or vehicle (control animals) three hours after the WBI. The group that got a placebo injection experienced 80% mortality, as predicted in this model. The dose of radiation of 8.6 Gray (=8.6 Gy) is known, in this species, to cause about an 80% mortality, so it is called the LD80 (lethal dose for 80%). The deaths started around Day 10, which is typical for what happens in WBI to animals or humans. By around Day 10, the gut lining is so damaged and leaky from the radiation that bacteria get into the circulation and cause gastrointestinal syndrome, and the bone marrow is so damaged that there is an insufficient number of white blood cells to fight the infection (“Bone Marrow Syndrome”), and death ensues. The group with “x” as the symbol got the first injection IV, and the second injection subcutaneously (SC) three hours after that first injection. 100% of these animals survived. […] To an outside observer, they would look like perfectly normal mice. The group with the triangle symbol got its first injection of the peptide via the SC route. Then it got additional SC injections every 48 hours, for a total of three doses (in addition to the first dose), meaning, on Day 3, Day 5, and Day 7. […] The group with the square symbol was identical in procedures to the group with the triangle symbol, except that the 48 hour SC injections continued on until a total of six doses had been injected (in addition to the first dose). So the dosing continued on until Day 13. […] When the animals got lower-level treatment (SC only), if the treatment was prolonged until the second week, here again, there was complete protection.
The group that got a placebo injection experienced 80% mortality, as predicted in this model. The dose of radiation given (8.6 Gray =8.6 Gy) is known, in this species, to cause about an 80% mortality, so it is called the LD80 (lethal dose for 80%). The deaths starting around Day 10, which is typical for what happens in WBI to animals or humans. By around Day 10, the gut lining is so damaged and leaky from the radiation that bacteria get into the circulation and cause sepsis because of Gastrointestinal (GI) Syndrome, and the bone marrow is so damaged that there is an insufficient number of white blood cells to fight the infection (“Bone Marrow Syndrome”), and death ensues.
A first group of peptide-treated mice (group with “x” as the symbol in FIG. 1) got the first injection with AQGV (SEO ID NO:120) IV, and the second injection subcutaneously (SC) three hours after that first injection.
A second group of mice got its first injection of the peptide via the SC route. Then it got additional SC injections every 48 hours, for a total of three doses (in addition to the first dose), meaning, on Day 3, Day 5, and Day 7.
The third group of mice was identical in procedures to the group with the second group, except that the q48 hour SC injections continued on until a total of six doses had been injected (in addition to the first dose). So the dosing continued on until Day 13.

[2] = tested on: mice after Whole Body Irradiation; assay: Dose Reduction Factor (DRF) test, escalating WBI doses; assay type: in vivo; settings: for Percent alive at day 30 / Percent dead at day 30 / The absolute number of animals alive at 30 days post WBI: 10 mg/kg s.c. single dose at day 3
Method: Escalating doses of Whole Body Irradiation (WBI), with one single exposure given to any particular cohort, and the exposure dose going progressively higher, for each subsequent cohort. A single dose of peptide EA-230 (AQGV (SEQ ID NO:120)) was administered subcutaneously, but with treatment delayed until three days (72 hours) after the WBI. The test is called the Dose Reduction Factor (“DRF”), which is defined as ratio between the LD50 of the treated group to the LD50 of the control group. The LD50 refers to that dose which is lethal to 50% of the animals tested. An acceptable DRF value is 1.20.
In this example we report on escalating dose studies of Whole Body Irradiation (WBI) with one single exposure given to any particular cohort, and the exposure dose going progressively higher for each subsequent cohort. A single dose of peptide AQGV (SEO ID NO:120) (10 mg/kg) was administered subcutaneously, but with treatment delayed until three days (72 hours) after the WBI. The test is called the Dose Reduction Factor (“DRF”), which is defined as ratio between the LD50 of the treated group to the LD50 of the control group. The LD50 refers to that dose which is lethal to 50% of the animals tested.
An acceptable DRF ratio is a factor of at least 1.10; but preferred is at least 1.20 or even at least 1.25.

[3] = tested on: LPS-induced septic shock in mice; settings: single treatment after high dose LPS injection; cited from earlier work
[4] = first SC injection three hours after WBI, then SC every 48 hours, six additional doses
[5] = first injection IV three hours after WBI, second SC three hours later

Question: With AQGV as the substance, how does the “mortality after WBI (in words)” value [1, 4] read?
Answer: no mortality whatsoever

Question: And the “signs of sickness after WBI (in words)” value [1, 4]?
Answer: showed no signs of sickness

Question: And the “mortality after WBI (in words)” value ([1]; first SC injection three hours after WBI, then SC every 48 hours, three additional doses)?
Answer: only one of these animals died

Question: What about the “signs of sickness after WBI (in words)” value [1, 5] of the same substance?
Answer: did not show any signs of sickness at all

Question: And the “survival after WBI” value [1, 5]?
Answer: 100%

Question: What about the “Dose Reduction Factor (factor by which the radiation dose has to be increased to kill 50% of the animals)” value ([2]; 10 mg/kg s.c. single dose 72 hours after WBI, LD50 treated / LD50 control) of the same substance?
Answer: 1.25

Question: What about the “radiation dose that kills 50% of the treated animals (LD50)” value ([2]; 10 mg/kg s.c. single dose 72 hours after WBI, day 30) of the same substance?
Answer: ~10.4 Gy

Question: And the “Percent alive at day 30” value ([2]; WBI 8.6 Gy)?
Answer: 100%

Question: What about the “Percent dead at day 30” value ([2]; WBI 8.6 Gy) of the same substance?
Answer: 0%

Question: What about the “The absolute number of animals alive at 30 days post WBI” value (“The absolute number of animals alive” for short) ([2]; WBI 8.6 Gy) of the same substance?
Answer: 20

Question: And the “Percent alive at day 30” value ([2]; WBI 9.2 Gy)?
Answer: 100%

Question: What about the “Percent dead at day 30” value ([2]; WBI 9.2 Gy) of the same substance?
Answer: 0%

Question: What about the “The absolute number of animals alive” value ([2]; WBI 9.2 Gy) of the same substance?
Answer: 10

Question: And the “Percent alive at day 30” value ([2]; WBI 9.8 Gy)?
Answer: 100%

Question: What about the “Percent dead at day 30” value ([2]; WBI 9.8 Gy) of the same substance?
Answer: 0%

Question: What about the “The absolute number of animals alive” value ([2]; WBI 9.8 Gy) of the same substance?
Answer: 10

Question: What about the “Percent alive at day 30” value ([2]; WBI 10.4 Gy) of the same substance?
Answer: 40%

Question: And the “Percent dead at day 30” value ([2]; WBI 10.4 Gy)?
Answer: 60%

Question: And the “The absolute number of animals alive” value ([2]; WBI 10.4 Gy)?
Answer: 4

Question: And the “Percent alive at day 30” value ([2]; WBI 11.0 Gy)?
Answer: 0%

Question: And the “Percent dead at day 30” value ([2]; WBI 11.0 Gy)?
Answer: 100%

Question: What about the “The absolute number of animals alive” value ([2]; WBI 11.0 Gy) of the same substance?
Answer: 0

Question: Which “septic shock in mice (in words)” value [3] does the source give for VLPALP (hexamer peptide) here?
Answer: inhibited septic shock in mice
